# Experiments:
# [1] = molecular target: c-Met (Homo sapiens, UniProt P08581); experiment: Delfia autophosphorylation kinase assay on the c-Met; format: biochemical; parameters: The purified His6 tagged cytoplasmic domain of c-Met was diluted to a concentration of 500 ng/ml; host or cells: Sf9 insect cells (baculovirus, pFastBacHTa); details: His6 tagged cytoplasmic domain of c-Met, 1 μM ATP; read-out: cMet Delfia autophos IC-50
# Summary of the method: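 Time-resolved fluorescence tracked autophosphorylation of the His6-tagged c-Met cytoplasmic domain, dispensed at 500 ng/ml onto nickel-chelate plates. Reaction buffer held 1 μM ATP, 10 mM MgCl2, vanadate and DTT at pH 8.0, for 1 h at room temperature.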
# [2] = test system: U87MG glioblastoma tumors; experiment: U87MG glioblastoma tumor xenograft model (tumor growth inhibition); format: in vivo, athymic nude mice
# Description: The U87MG glioblsatoma cell line (Piedmont Research Center LLC) expresses the c-Met receptor and responds to Human Growth Factor (HGF). This study investigated whether treatment with an inhibitor of c-Met is efficacious against the U87MG glioblastoma tumor xenograft model. This study utilized a tumor growth inhibition (TGI) assay to test per os (p.o.) compound monotherapy in groups of fifteen nude mice. A control group was treated with vehicle, 20% Hydroxypropyl Beta-Cyclodextrin (HPBCD). All treatments began on Day 1 (D1) in mice bearing established subcutaneous (s.c.) U87MG tumors.
# Female athymic nude mice (Harlan) were 10-11 weeks old with a BW range of 18.1-25.0 g on D1 of the study. The animals were fed ad libitum water (reverse osmosis, 1 ppm Cl) and NIH 31 Modified and Irradiated Lab Diet® consisting of 18.0% crude protein, 5.0% crude fat, and 5.0% crude fiber. The mice were housed on irradiated ALPHA-dri® Bed-o-cobs® Laboratory Animal Bedding in static microisolators on a 12-hour light cycle at 21-22° C. (70-72° F.) and 40-60% humidity. All animals were housed in a Laboratory Animal Medicine facility that is fully accredited by the American Association for Assessment and Accreditation of Laboratory Animal Care (AAALAC). All procedures involving animals were conducted in compliance with the NIH Guide for the Care and Use of Laboratory Animals and all protocols were approved by an Internal Animal Care and Use Committee (IACUC).
# Xenografts were initiated from U87MG human glioblastoma tumor fragments maintained by serial transplantation in athymic nude mice. Each test mouse received a subcutaneous U87MG tumor fragment (1 mm^3) implanted in the right flank, and the growth of tumors was monitored as the average size approached 200 mm^3. Twelve days later, on Day 1 of the study, the animals were sorted into 4 groups (n=12-15 mice/group) with individual tumor volumes ranging from 172-352 mm^3 and group mean tumor volumes of 216 mm^3. Tumor volume was calculated using the formula:
# [formula] where w=width and l=length in mm of the tumor. Tumor weight may be estimated with the assumption that 1 mg is equivalent to 1 mm^3 of tumor volume. Drug Treatment
# Dosing solutions of compounds of the present invention were prepared fresh weekly in a vehicle consisting of 20% Hydroxypropyl Beta-Cyclodextrin (HPBCD) in water. In all groups, the dosing volume of 0.2 mL/20-g mouse was scaled to the body weight of each animal. Doses were given to allow for the HCl salt form of the compound.
# TGI was calculated from the difference between the median tumor volumes of vehicle-treated and drug-treated mice, expressed as a percentage of the median tumor volume of the vehicle-treated control group, by the following relation:
# The MTV (n) is defined as the median tumor volume (MTV) for the number of animals, n, remaining in the study on that day.
# Animals were weighed daily for the first five days of the study and then twice weekly. The mice were examined frequently for overt signs of any adverse, drug-related side effects, and clinical signs of toxicity were recorded when observed. Acceptable toxicity is defined as a group mean body-weight (BW) loss of less than 20% during the study, and not more than one treatment-related (TR) death among ten animals. A death is classified as TR if it is attributable to treatment side effects as evidenced by clinical signs and/or necropsy, or due to unknown causes during the dosing period or within 10 days of the last dose. A death is classified as non treatment-related (NTR) if there is no evidence that the death was related to drug side effects. A death is classified as non treatment-related unknown (NTRu) if the cause of death is unknown.
# The Mann-Whitney U-test, for analysis of medians, was used to determine the statistical significance of the difference between the MTVs. Prism 3.03 (GraphPad) for Windows was used for the statistical analyses and graphic presentations. […]
# Chain of c-Met (P08581 956-1390 limits assumed): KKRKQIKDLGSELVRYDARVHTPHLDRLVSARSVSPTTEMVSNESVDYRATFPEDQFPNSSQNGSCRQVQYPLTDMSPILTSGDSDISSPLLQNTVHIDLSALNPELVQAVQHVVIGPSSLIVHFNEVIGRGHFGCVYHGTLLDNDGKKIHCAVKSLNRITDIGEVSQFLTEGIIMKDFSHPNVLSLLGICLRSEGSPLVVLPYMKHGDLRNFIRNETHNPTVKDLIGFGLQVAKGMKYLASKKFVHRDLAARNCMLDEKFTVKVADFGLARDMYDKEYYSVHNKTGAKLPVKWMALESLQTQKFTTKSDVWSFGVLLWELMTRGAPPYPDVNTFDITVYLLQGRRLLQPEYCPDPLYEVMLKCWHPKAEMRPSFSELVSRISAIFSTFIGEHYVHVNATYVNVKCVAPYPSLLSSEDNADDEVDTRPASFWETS
compound,measurement,setting,value
"Cn1cc(-c2ccc3nnc(C(F)(F)c4ccc5ncccc5c4)n3n2)cn1 [Example 61, 6-{Difluoro-[6-(1-methyl-1H-pyrazol-4-yl)-[1,2,4]triazolo[4,3-b]pyridazin-3-yl]-methyl}-quinoline]",IC50,[1],1 nM
same,decrease of mean tumor volume,"[2]; 25 mg/kg p.o., q.d. on day 1 and b.i.d. to day 12, Day 12, p<0.01",94%
same,decrease of mean tumor volume,"[2]; 50 mg/kg p.o., b.i.d. for 7 days, 24-hr pause, then q.d. to day 12, Day 12, p<0.01",96%
same,decrease of mean tumor volume,"[2]; 75 mg/kg p.o., b.i.d. for 7 days, 24-hr pause, then q.d. to day 12, Day 12, p<0.01",97%
same,tumor regression,"[2]; 25, 50 and 75 mg/kg p.o., 12 days",Tumor regression was also observed with all three doses
same,tumor growth inhibition of U87MG tumors,"[2]; 25, 50 and 75 mg/kg p.o., 12 days, p<0.01","statistically significant, tumor growth inhibition"

# — patent publication US8173654B2, “Triazolopyridazine compounds” (Janssen Pharmaceutica N.V., priority 2005, dated 2012)
